Test results reported in US7803377B2, “Anti-DLL4 antibodies and methods using same” (Genentech, Inc., priority 2006, dated 2010).

Columns and labels:
HUVECs = test: HUVEC fibrin gel bead assay; assay type: cell-based, human; settings: anti-DLL4 antibody 5 μg/ml, DBZ 0.08 μM
Procedure: HUVEC fibrin gel bead assay. Details of the HUVEC fibrin gel bead assay have been described (Nakatsu, M. N. et al. Microvasc Res 66, 102-12 (2003)). Briefly, Cytodex™ 3 beads (Amersham Pharmacia Biotech) were coated with 350-400 HUVECs per bead. About 200 HUVEC-coated beads were imbedded in fibrin clot in one well of 12-well tissue culture plate. 8×10^4 SF cells were plated on top of the clot. Assays were terminated between day 7 and day 9 for immunostaining and imaging. In some experiments, HUVEC sprouts were visualized by staining with Biotin-anti-CD31 (clone WM59, eBioscience) and strepavidin-Cy3. For HUVEC nuclei staining, fibrin gels were fixed overnight in 2% paraformaldehyde (PFA), and stained with 4′,6-diamidino-2-phenylindole (DAPI, Sigma). For Ki67 staining, fibrin gels were treated with 10× trypsin-EDTA for 5 min to remove the top layer SF, neutralized with 10% FBS in PBS, and fixed overnight in 4% PFA. Fibrin gels were then blocked with 10% goat serum in PBST for 4 hr, incubated overnight with rabbit anti-mouse Ki67 (Ready-To-Use, clone Sp6, LabVision), followed by secondary detection with anti-rabbit IgG-Cy3 (Jackson ImmunoResearch). All overnight incubations were done at 4° C. […]

[1] = Tolerability in tumor-bearing mice; assay type: in vivo, mouse; settings: 10 mg/kg twice per week for up to 8 weeks
From the text: Thus, DLL4/Notch signaling is critical during active angiogenesis, but plays a less important role in normal vessel maintenance.

[2] = tested on: mouse leukemia WEHI-3 cells; test: Tumor model WEHI3; assay type: in vivo; settings: treatment initiated at ≧250 mm^3
Procedure: Tumor models. Beige nude female mice of 8- to 10-week-old were used. To obtain subcutaneous tumors, mice were injected with 0.1 ml cell suspension containing 50% matrigel (BD Bioscience) into the right posterior flank. 5×10^6 human colon cancer HM7 cells, 10×10^6 human colon carcinoma Colo205 cells, 10×10^6 human lung carcinoma Calu6 cells, 10×10^6 human lung carcinoma MV-522 cells, 10×10^6 mouse leukemia WEHI-3 cells, 10×10^6 mouse lymphoma EL4 cells, 10×10^6 human ovarian cancer SK-OV-3 X1 cells, 10×06 mouse lung cancer LL2 cells, 10×10^6 leukemia/lymphoma EL4 cells, or 10×10^6 non-small lung cancer H1299 cells were injected into each mouse. For human melanoma MDA-MB-435 model, mice were injected into the mammary fat pad with 0.1 ml cell (5×10^6) suspension containing 50% matrigel. […] For the following tumor models, each test mouse received a subcutaneous tumor fragment (1 mm^3) implanted in the right flank: non-small lung cancer SKMES-1, human breast cancer MX-1, human colorectal cancer SW620 and human adenocarcinoma LS174T. The tumor growth was quantitated by caliper measurements. Tumor volume (mm^3) was determined by measuring the length (l) and width (w) and calculating the volume (V=lw2/2). 10 to 15 animals were included in each group. Statistical comparison of treatment groups was performed using two-tailed Student's t-test. […]

DLL1 = target: T1, DLL1 (Homo sapiens, UniProt O00548); test: FACS analysis of transiently transfected 293 cells; assay type: binding; design: transiently transfected with vector, full length DLL4, Jag1 or DLL1; expressed in transfected cells; host or cells: 293 cells, transient; settings: DLL1 transfected 293 cells; antibody 2 μg/ml
T1 sequence (O00548 18-723): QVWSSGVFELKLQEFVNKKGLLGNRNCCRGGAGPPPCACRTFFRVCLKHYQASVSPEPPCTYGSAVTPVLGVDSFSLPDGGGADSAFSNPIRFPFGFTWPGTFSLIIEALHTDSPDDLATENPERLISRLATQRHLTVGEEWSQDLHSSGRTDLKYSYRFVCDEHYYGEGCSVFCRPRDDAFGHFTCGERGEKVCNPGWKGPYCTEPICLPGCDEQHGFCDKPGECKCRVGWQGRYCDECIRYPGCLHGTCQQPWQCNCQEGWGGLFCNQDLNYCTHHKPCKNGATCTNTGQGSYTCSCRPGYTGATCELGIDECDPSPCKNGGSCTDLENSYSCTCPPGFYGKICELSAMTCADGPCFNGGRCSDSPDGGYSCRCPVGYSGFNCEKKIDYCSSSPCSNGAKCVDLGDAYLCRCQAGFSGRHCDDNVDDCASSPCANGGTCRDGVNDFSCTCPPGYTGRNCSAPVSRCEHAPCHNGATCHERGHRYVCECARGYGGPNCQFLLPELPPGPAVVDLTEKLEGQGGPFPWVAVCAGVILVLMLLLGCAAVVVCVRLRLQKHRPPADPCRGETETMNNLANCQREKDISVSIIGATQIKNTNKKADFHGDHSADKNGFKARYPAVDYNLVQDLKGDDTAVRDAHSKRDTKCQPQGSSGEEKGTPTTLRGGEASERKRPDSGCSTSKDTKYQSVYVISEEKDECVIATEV
From the text: (§1) Expression of Jag1 and DLL1 was confirmed by the binding of recombinant rat Notch1-Fc (rrNotch1-Fc, middle panel) and recombinant rat Notch2-Fc (rrNotch2-Fc, bottom panel), respectively.

Jag1 = Jag1 (Homo sapiens, UniProt P78504); test: FACS analysis of transiently transfected 293 cells; assay type: binding; design: transiently transfected with vector, full length DLL4, Jag1 or DLL1; expressed in transfected cells; host or cells: 293 cells, transient; settings: Jag1 transfected 293 cells; antibody 2 μg/ml
From the text: as §1

For “YW26.82: affinity matured anti-DLL4 monoclonal antibody; HVR-H1/H2/H3 SEQ ID NO:1, 8, 9; HVR-L1/L2/L3 SEQ ID NO:10, 11, 18”, the “HUVEC sprouting (length and number of sprouts)” value (HUVECs; fibrin gel with co-cultured SF cells) was “markedly increased the length and number of sprouts”, the “Ki67 staining, HUVEC proliferation” value (HUVECs; fibrin gel) was “caused hyperproliferation of HUVECs” and the “weight loss or animal death” value [1] was “no apparent weight loss or animal death”. For the same substance, the “tumor growth, single agent” value [2] was “significant inhibition of tumor growth”, the “binding by FACS” value (DLL1) was “Significant binding was not detected” and the “binding by FACS” value (Jag1) was “Significant binding was not detected”.
